# Source: US7572823B2, “Heteroaryl carboxamide compounds” (Hoffmann-La Roche Inc., priority 2006, dated 2009)
# Target: T1, cholesteryl ester transfer protein (CETP) (Homo sapiens, UniProt P11597)
# T1 construct: the source of CETP was human lipoprotein-deprived serum (LPDS); from tissue; host or cells: human lipoprotein-deprived serum (LPDS)
# T1 sequence (P11597 18-493): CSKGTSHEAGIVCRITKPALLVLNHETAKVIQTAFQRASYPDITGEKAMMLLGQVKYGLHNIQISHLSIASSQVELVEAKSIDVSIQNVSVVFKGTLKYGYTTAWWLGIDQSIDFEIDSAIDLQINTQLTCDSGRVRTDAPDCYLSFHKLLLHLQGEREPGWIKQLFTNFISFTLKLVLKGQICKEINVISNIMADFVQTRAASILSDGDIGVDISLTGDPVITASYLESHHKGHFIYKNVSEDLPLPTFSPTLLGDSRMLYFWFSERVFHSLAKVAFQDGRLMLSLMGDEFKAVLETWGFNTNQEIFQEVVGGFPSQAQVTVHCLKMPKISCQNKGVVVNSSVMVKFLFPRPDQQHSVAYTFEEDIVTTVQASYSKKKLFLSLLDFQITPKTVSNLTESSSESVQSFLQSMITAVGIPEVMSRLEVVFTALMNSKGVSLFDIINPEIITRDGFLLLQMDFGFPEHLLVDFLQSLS
# Assay: CETP inhibition SPA assay in the presence of plasma (CETP source: human lipoprotein-deprived serum)
# Type: biochemical
# Settings: CETP source human lipoprotein-deprived serum (LPDS), radiolabeled cholesteryl ester transfer from HDL donor to biotin-labeled LDL acceptor
# Description: Activity of CETP inhibitors was determined using a buffer assay system. Partially purified CETP transferred radiolabeled cholesteryl ester from HDL donor particles to biotin-labeled LDL acceptor particles. The reaction was stopped by addition of streptavidin-coupled scintillation proximity assay (SPA) beads. These beads captured the biotinylated acceptor particles and transferred radioactivity was measured. The assay system was purchased and performed according to manufacturer's recommendations (Amersham Biosciences). Inhibitory activity of compounds was determined as percentage of positive control activity containing CETP together with donor and acceptor particles. Serial dilution of compounds was performed in order to determine the IC50 values. Activity of the compounds was subsequently measured in the presence of plasma using the same assay as described above except that the source of CETP was human lipoprotein-deprived serum (LPDS). Inhibitory activity of compounds was determined as percentage of positive control activity containing all the assay components except compound. Serial dilution of compounds was performed in order to determine the IC50 values.
row,SMILES,IC50
1,"C[Si](C)(C)c1ccc(CN(CCc2cccc(OC(F)(F)F)c2)C(=O)c2c(F)c(Cl)cc3cc[nH]c23)cc1 [Example 1, 5-Chloro-6-fluoro-1H-indole-7-carboxylic acid [2-(3-trifluoromethoxy-phenyl)-ethyl]-(4-trimethylsilanyl-benzyl)-amide]",21 nM
2,"C[Si](C)(C)c1ccc(CN(CCc2cccc(C(F)(F)F)c2)C(=O)c2c(F)c(Cl)cc3cc[nH]c23)cc1 [Example 3, 5-Chloro-6-fluoro-1H-indole-7-carboxylic acid [2-(3-trifluoromethyl-phenyl)-ethyl]-(4-trimethylsilanyl-benzyl)-amide]",16 nM
3,"CC(C)[Si](C)(C)c1ccc(CN(CCc2cccc(C(F)(F)F)c2)C(=O)c2c(F)c(Cl)cc3cc[nH]c23)cc1 [Example 6, 5-Chloro-6-fluoro-1H-indole-7-carboxylic Acid [4-(isopropyl-dimethyl-silanyl)-benzyl]-[2-(3-trifluoromethyl-phenyl)-ethyl]-amide]",44 nM
